Tests used:
[1] = test system: A2780R cisplatin-resistant ovarian carcinoma cell line; assay: In vitro cytotoxicity testing (MTT assay), A2780R; type: cell-based, human; settings: 24 h exposure time; for IC50: MTT assay, read-out: IC50 ± SD, A2780R
Experimental: (§1) The cell lines were cultured, according to the supplier´s instructions, in RPMI-1640 medium supplemented with 10% of fetal calf serum, 1% of 2 mM glutamine, and 1% penicillin/streptomycin. All cell lines were grown as adherent monolayers at 37 °C and 5% CO2 in a humidified atmosphere.

[2] = test system: A2780 human ovarian carcinoma cell line; assay: In vitro cytotoxicity testing (MTT assay), A2780; type: cell-based; settings: 24 h exposure time; for IC50: MTT assay, read-out: IC50 ± SD, A2780
Experimental: as §1, with “Human A2780 ovarian carcinoma, A2780R cisplatin-resistant ovarian carcinoma and MRC-5 normal fibroblast cell lines were supplied by the European Collection of Cell Cultures (ECACC). The” for “The”

[3] = test system: MRC-5 normal fibroblast cell line; assay: In vitro cytotoxicity testing (MTT assay), MRC-5; type: cell-based, human; settings: 24 h exposure time; for IC50: MTT assay, read-out: IC50 ± SD, MRC5
Experimental: as §1

A2780 cells = test system: A2780 cells; design: method as in PMID 22322463; settings: cited from earlier work
[4] = test system: A2780 cells with acquired resistance to cisplatin; design: method as in PMID 22322463; settings: cited from earlier work
[5] = test system: A549 human lung carcinoma cells; design: method as in PMID 24763048; settings: as compared with untreated cells; cited from earlier work
U266 human myeloma cells = test system: U266 human myeloma cells; design: method as in PMID 20542334; settings: cited from earlier work
[6] = Solution behaviour in water/DMF mixture (1H and 31P-NMR); type: physicochemical; settings: 50% DMF-d7/50% D2O, ca. 1 mM, 48 h at ambient temperature
Experimental: Only one set of ^1H-NMR signals (e.g., C3–H signal at 6.50 ppm) and one ^31P-NMR signal (34.8 ppm) were detected on the fresh solution, and no changes were observed even after 48 h of standing at ambient temperature. The positions of the ^1H and ^31P-NMR signals detected on the solution of 8 in the 50% DMF-d7/50% D2O mixture were different from those of free H2Me4Claza (C3–H signal at 6.32 ppm; Figure 3), PPh3 (^31P-NMR signal at −4.7 ppm), the oxidized triphenylphosphane (O=PPh3; ^31P-NMR signal at 32.4 ppm) or [AuCl(PPh3)] (^31P-NMR signal at 34.2 ppm) dissolved in the same mixture of solvents (Figure S6).
(§2) Complex 8 and [AuCl(PPh3)] […] Similar solutions were prepared with 1 or 5 mol equivs of GSH, Cys, or BSA. ^1H and ^31P-NMR spectra were recorded at different time points over 48 h at 300 K. The obtained ^1H-NMR spectra were calibrated against the residual signal of water found at 4.75 ppm, while the ^31P-NMR spectra were referenced as described above.

[7] = target: T1, bovine serum albumin (BSA) (Bos taurus, UniProt P02769); assay: Interaction study with bovine serum albumin (NMR); settings: 50% DMF-d7/50% D2O
T1 construct: purchased Sigma-Aldrich Co. (Prague, Czech Republic) and Fisher-Scientific Co. (Pardubice, Czech Republic)
T1 sequence (P02769 25-607): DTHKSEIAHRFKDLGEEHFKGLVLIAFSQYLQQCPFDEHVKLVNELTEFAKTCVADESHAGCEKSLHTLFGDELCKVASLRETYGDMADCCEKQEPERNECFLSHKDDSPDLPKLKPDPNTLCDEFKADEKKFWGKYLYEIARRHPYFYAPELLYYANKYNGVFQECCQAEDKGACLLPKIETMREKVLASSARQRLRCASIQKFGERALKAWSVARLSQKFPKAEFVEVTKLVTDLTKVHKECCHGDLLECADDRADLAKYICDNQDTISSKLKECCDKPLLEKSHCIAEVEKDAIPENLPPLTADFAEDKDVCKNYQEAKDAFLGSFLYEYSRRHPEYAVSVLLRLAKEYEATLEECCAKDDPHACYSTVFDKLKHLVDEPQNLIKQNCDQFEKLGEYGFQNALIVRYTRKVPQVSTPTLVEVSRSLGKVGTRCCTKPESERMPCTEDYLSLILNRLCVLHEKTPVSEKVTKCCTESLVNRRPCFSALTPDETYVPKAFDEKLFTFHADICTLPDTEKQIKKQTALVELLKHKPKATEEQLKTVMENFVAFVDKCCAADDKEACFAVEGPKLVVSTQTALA
Experimental: An interaction of 8 with bovine serum albumin (BSA) resulted immediately in a white turbidity, which was subsequently removed by centrifugation (13,000 rpm for 3 min; Mini Spin, Eppendorf AG, Hamburg, Germany). The ^1H-NMR spectrum recorded on the obtained supernatant contained the signals of the released N-donor ligand, with the signal positions (e.g., C3–H signal at 6.36 ppm) being consistent with those detected for free H2Me4Claza in the same mixture of solvents (Figure S8). No signals were detected in the ^31P-NMR spectra recorded on the mentioned supernatant.
as §2

[8] = test system: A2780 human ovarian carcinoma cells; assay: Cell cycle analysis by flow cytometry (PI/RNase staining); type: cell-based; settings: A2780 cells treated at IC50 concentration, 24 h; for S cell cycle phase population: control 9.0% ± 1.9%; for G2 cell cycle phase population: control 24.0% ± 2.6%; for G0/G1 cell cycle phase population: control 66.3% ± 3.8%
Experimental: The obtained results are depicted in Figure 4.
A2780 cells (1.0 × 10^6 per well) were pre-incubated in a six-well plate for 24 h, as described above. […] After 24 h, floating cells were collected and attached cells were harvested using trypsin/EDTA in PBS. Total cells were washed twice with PBS and fixed in 70% ethanol. Cells were resuspended in PBS and DNA staining was achieved by a solution of propidium iodide (PI) supplemented with RNase A (30 min, 25 °C, in the dark). After that, the cells were washed (PBS), resuspended (PBS), and DNA content was measured using flow cytometry (CytoFlex, Beckman Coulter, Brea, CA, USA) detecting emission of DNA-bound PI (maximum at 617 nm) after excitation at 535 nm. The data were analysed using CytExpert^TM software (Beckman Coulter).

[9] = Stability in DMF-d7 (1H and 31P-NMR); type: physicochemical; settings: 1H-NMR and 31P-NMR, ambient temperature

SMILES	RF = resistance factor (IC50(A2780R)/IC50(A2780)) [1]	IC50 [1]	in vitro cytotoxicity against A2780 compared with cisplatin [2]	IC50 [2]	SI = selectivity index (IC50(MRC5)/IC50(A2780)) [3]	IC50 [3]	also measured
Clc1c[n]([Au][P](c2ccccc2)(c2ccccc2)c2ccccc2)c2ncccc12 [Complex 2, [Au(3Claza)(PPh3)]]	1.0	21.7 ± 0.8 µM	comparable	22.4 ± 5.7 µM	1.4	31.4 ± 4.9 µM	
Brc1cnc2c(c1)c(I)c[n]2[Au][P](c1ccccc1)(c1ccccc1)c1ccccc1 [Complex 7, [Au(3I5Braza)(PPh3)]]	1.1	22.1 ± 0.3 µM	comparable	20.2 ± 2.5 µM	1.4	27.3 ± 2.6 µM	
CC[PH](CC)(CC)[Au][S][C@@H]1O[C@H](COC(C)=O)[C@@H](OC(C)=O)[C@H](OC(C)=O)[C@H]1OC(C)=O [auranofin, triethylphosphane-(2,3,4,6-tetra-O-acetyl-β-D-thiopyranosato)gold(I) complex]							potency in vitro against A2780 cells relative to cisplatin (A2780 cells): ca. three-fold higher; RF (resistance factor) [4]: ca. 0.9; sub-G1 cell cycle phase population increase [5]: > 13%; cell cycle arrest (U266 human myeloma cells): G0/G1 cell cycle arrest
Cc1cc2c(Cl)ccnc2[n]1[Au][P](c1ccccc1)(c1ccccc1)c1ccccc1 [Complex 8, [Au(2Me4Claza)(PPh3)]]		8.9 ± 3.8 µM	more than seven times higher	2.8 ± 0.7 µM	9.6	26.9 ± 3.6 µM	hydrolytic stability [6]: hydrolytically stable; interaction with BSA [7]: replaces the N-donor ligand 2Me4Claza; solubility in water (Solubility): low solubility in water
Ic1c[n]([Au][P](c2ccccc2)(c2ccccc2)c2ccccc2)c2ncccc12 [Complex 4, [Au(3Iaza)(PPh3)]]		11 ± 4.7 µM		3.5 ± 0.4 µM	8.3	29.2 ± 5.9 µM	
N.N.[Cl][Pt][Cl] [Cisplatin, cisplatin, reference compound]		> 50 µM		20.3 ± 2.3 µM		> 50 µM	cell cycle modification (phase arrest) [8]: S-arrest; S cell cycle phase population [8]: 44.8% ± 2.9%
Brc1cnc2c(cc[n]2[Au][P](c2ccccc2)(c2ccccc2)c2ccccc2)c1 [Complex 5, [Au(5Braza)(PPh3)]]		14.4 ± 3.3 µM		3.1 ± 0.5 µM	8.4	26 ± 4.2 µM	cell cycle modification (phase arrest) [8]: G2-arrest; S cell cycle phase population [8]: 9.1% ± 2.1%; G2 cell cycle phase population [8]: 30.4% ± 2.9%; G0/G1 cell cycle phase population [8]: 58.1% ± 5.8%
c1ccc([P]([Au][n]2ccc3cccnc32)(c2ccccc2)c2ccccc2)cc1 [Complex 1, [Au(aza)(PPh3)]]	1.2	4.4 ± 0.8 µM		3.8 ± 1.1 µM	2.0	7.7 ± 1.7 µM	solubility in the used medium (Solubility; cell culture medium, dilution of 50 mM DMF stock): less soluble; cell cycle modification (phase arrest) [8]: G2-arrest; S cell cycle phase population [8]: 7.2% ± 0.9%; G2 cell cycle phase population [8]: 44.0% ± 2.3%; G0/G1 cell cycle phase population [8]: 46.0% ± 2.8%
Brc1c[n]([Au][P](c2ccccc2)(c2ccccc2)c2ccccc2)c2ncccc12 [Complex 3, [Au(3Braza)(PPh3)]]	0.9	21.3 ± 0.8 µM	comparable	23.3 ± 3.4 µM	1.2	27.3 ± 1.7 µM	
[Cl][Au].c1ccc(P(c2ccccc2)c2ccccc2)cc1 [[AuCl(PPh3)], chlorido-triphenylphosphanegold(I) complex]							stability in DMF-d7 [9]: low stability
Clc1c[n]([Au][P](c2ccccc2)(c2ccccc2)c2ccccc2)c2ncc(Br)cc12 [Complex 6, [Au(3Cl5Braza)(PPh3)]]	0.6	13.8 ± 2.1 µM	comparable	22.9 ± 2.3 µM	1.2	26.5 ± 3.7 µM	
